Laboratory results from US20230339991A1, “HYPOXIA-ACTIVATED DNA ALKYLATING AGENT AND MEDICAL USE THEREOF” (ASCENTAWITS PHARMACEUTICALS, LTD., priority 2020, published 2023).
pIC50: −log10 of the molar value. Like-named read-outs stand apart in the source and are kept apart here.

Key:
hepatoma cell HepG2 = test: Hypoxia-dependent proliferation inhibition, HepG2; assay type: cell-based, human; settings: for pIC50: Homo sapiens; for HCR (hypoxic cytotoxicity ratio): IC50 ratio normoxia/N2
Excerpt: (§1) To determine the effect of the drug A according to the present invention on cancer cell proliferation, the antiproliferative activity of these compounds against the cancer cell was detected in a porous CTG-based assay. The effects of test compounds on cell proliferation under normoxic (21% O2) and hypoxic (<0.01% O2) conditions were compared. H460 cells were routinely cultured to 80%-90% of cell saturation, and when the number reached the requirement, resuspended with the corresponding culture medium, counted and prepared into cell suspension with appropriate density. The cell suspension was added to two types of 24-well plates, 495 μL per well with 1×10^4/well of cell density. 24-well plates inserted with glass insert were used for hypoxic tests, and ordinary plastic 24-well plates were used for normoxic tests. 5 μL of each compound was added to the hypoxic and normoxic reaction systems, respectively. After reacting for 3 hours in the hypoxic workstation or the normoxic incubator, the compounds were washed away using the culture medium and the system was placed in an incubator for another 72 hours. The final concentrations of each compound tested under normoxic conditions were as follows: TH-302 was 1000, 200, 40, 8, 1.6, 0.32 μM; test compound A (compound 32) was 1000, 200, 40, 8, 1.6, 0.32 μM; compound 26 was 500, 50, 5, 0.5, 0.05 μM. The final concentrations of each compound tested under hypoxic conditions were as follows: TH-302 was 10, 2, 0.4, 0.08, 0.016, 0.0032 μM; test compound A (compound 32) was 50, 5, 0.5, 0.05, 0.005, 0.0005 μM; compound 26 was 500, 50, 5, 0.5, 0.05 μM. After 72 hours of cell culture, 300 μL of culture medium was removed from each well of 24-well plate. 50 μL of CTG was added into each well. The plate was mixed and shaked for 2 min, and kept in dark for 15 minutes at room temperature. 100 μL per well of culture medium was transferred from 24-well plate to 96-well white plate, and the chemiluminescence signal value was read with Multifunctional enzyme marker with a reading time of 1000 ms. The IC50 was calculated using GraphPad Prism 5 software. […] The compound TH-302 (a hypoxic-activated prodrug entering phase III clinical studies, cas No. 918633-87-1, see the literature Sun J D, Liu Q, Wang J, et al. Selective tumor hypoxia targeting by hypoxia-activated prodrug TH-302 inhibits tumor growth in preclinical models of cancer. [J]. Clinical Cancer Research An Official Journal of the American Association for Cancer Research, 2012, 18(3): 758-70, structural formula is
Similarly, the above-mentioned three compounds were tested for the proliferation inhibition effect on hepatoma cell HepG2, and the results are shown in the following table 5.

[1] = Liver microsome stability, human; settings: for Remaining percentage after 30 minutes: Human
Description: (§2) 1) Two individual experiments were performed.
(§3) 1a) With NADPH: 10 μL of 20 mg/mL liver microsomes and 40 μL of 10 mM NADPH were added to the culture solution. The final concentrations of microsomes and NADPH were 0.5 mg/mL and 1 mM, respectively.
(§4) 1b) Without NADPH: 10 μL of 20 mg/mL liver microsomes and 40 μL of ultrapure H2O were added to the culture solution. The final concentration of microsomes was 0.5 mg/mL.
(§5) 3) 50 μL of aliquots were taken from the reaction solution at 0 min and 30 min. The reaction was terminated by adding 4 volumes of cold acetonitrile and four internal standards (IS, 100 nM alprazolam, 200 nM caffeine, 200 nM labetalol and 2 μM ketoprofen). The samples were centrifuged at 3, 220×g for 40 min. The aliquots of 100 μL of supernatant were mixed with 100 μL of ultrapure H2O and then used for LC-MS/MS analysis. All experiments were performed in duplicate.

[2] = Liver microsome stability, dog; settings: for Remaining percentage after 30 minutes: Dog
Description: as §2, §3, §4, §5

H460 cancer cells = test: Hypoxia-dependent proliferation inhibition, H460, CTG; assay type: cell-based, human; settings: for pIC50: Homo sapiens, 3 h exposure
Excerpt: as §1, with “formula is […]” for “formula is”

[3] = Liver microsome stability, mouse; settings: for Remaining percentage after 30 minutes: Mouse
Description: as §2, §3, §4, §5

[4] = Liver microsome stability, rat; settings: for Remaining percentage after 30 minutes: Rat
Description: as §2, §3, §4, §5

[5] = N2 (hypoxic), read-out: IC50 N2
[6] = normoxia, read-out: IC50 Normoxia
[7] = NCI-H460, hypoxic (<0.01% O2), read-out: N2 IC50
[8] = NCI-H460, normoxic (21% O2), read-out: Normoxic IC50

SMILES | pIC50 (hepatoma cell HepG2; [5]) | pIC50 (hepatoma cell HepG2; [6]) | HCR (hypoxic cytotoxicity ratio) (hepatoma cell HepG2) | stability in liver microsomes ([1]; human) | stability in liver microsomes ([2]; canine) | IC50 ratio: Normoxia/N2 (H460 cancer cells) | pIC50 (H460 cancer cells; [7]) | stability in liver microsomes ([3]; mouse) | stability in liver microsomes ([4]; rat) | Remaining percentage after 30 minutes ([1]; without NADPH) | Remaining percentage after 30 minutes ([2]; with NADPH) | Remaining percentage after 30 minutes ([2]; without NADPH) | Remaining percentage after 30 minutes ([3]; with NADPH) | Remaining percentage after 30 minutes ([3]; without NADPH) | Remaining percentage after 30 minutes ([4]; with NADPH) | Remaining percentage after 30 minutes ([4]; without NADPH) | Remaining percentage after 30 minutes ([1]; with NADPH, 2 μM) | pIC50 (H460 cancer cells; [8])
O=[N+]([O-])c1ccc(C(OP(=O)(N2CC2)N2CC2)C(F)(F)F)c2ccccc12 (racemic) [Compound A] | 5.32 | 4.69 | 4.31 | relatively stable | not stable | 12.5 | 7.40 | relatively stable | not stable | – | – | – | – | – | – | – | – | –
O=[N+]([O-])c1ccc([C@@H](OP(=O)(N2CC2)N2CC2)C(F)(F)F)c2ccccc12 (single isomer, unassigned) [Compound C] | – | – | – | – | – | – | – | – | – | 82.15% | 31.16% | 101.62% | 102.89% | 103.07% | 71.05% | 111.15% | – | –
CC(OP(=O)(N1CC1)N1CC1)c1ccc([N+](=O)[O-])c2ccccc12 (stereo not drawn) [Compound D] | 5.82 | 4.78 | 11.13 | – | – | 20 | 7.40 | – | – | 107.67% | 9.97% | 99.10% | 32.37% | 96.37% | 6.81% | 103.00% | 74.28% | 6.10
Cn1c(COP(=O)(NCCBr)NCCBr)cnc1[N+](=O)[O-] [TH-302, Evofosfamide] | 4.91 | 3.04 | 72.82 | – | – | 680 | 7.70 | – | – | – | – | – | – | – | – | – | – | 4.87
